# From publication PMC8588467, “Rational Design 2-Hydroxypropylphosphonium Salts as Cancer Cell Mitochondria-Targeted Vectors: Synthesis, Structure, and Biological Properties” (Molecules, 2021)
# Assays:
# HuTu-80 cells [1] = experiment: Induction of apoptosis, annexin V/propidium iodide flow cytometry; format: cell-based, human; conditions: IC50/2, 48-h incubation
# Protocol: Apoptosis is one of the most significant mechanisms used for screening new anti-cancer agents. The apoptosis-inducing effect was carried out on lead compounds 3a, b, k, j and 4c showing high selectivity against HuTu-80 cells. The studies were carried out by flow cytometry at concentrations IC50/2 and IC50 (Figure 4). […] The percentage of apoptotic cells in early and late phases was slightly changed with increase compound concentration up to IC50.
# HuTu 80 cells at 1 × 10^6 cells/well in a final volume of 2 mL were seeded into six-well plates. After 48 h of incubation, various concentrations of compounds 3a,b and 3k were added to wells.
# The cells were harvested at 2000 rpm for 5 min and, then, washed twice with ice-cold PBS, followed by resuspension in binding buffer. Next, the samples were incubated with 5 μL of annexin V-Alexa Fluor 647 (Sigma–Aldrich, St. Louis, MO, USA) and 5 μL of propidium iodide for 15 min at room temperature in the dark. Finally, the cells were analyzed by flow cytometry (Guava easy Cyte, MERCK, Rahway, NJ, USA) within 1 h. The experiments were repeated three times.
# [2] = tested on: T98G glioblastoma cell line; experiment: MTT cytotoxicity, T98G; format: cell-based, human; conditions: for IC50: Homo sapiens, T98G, MTT, mean ± SD, triplicate; for SI T98G: IC50 normal cells (WI38) / IC50 cancer cells, ns = no selectivity
# HuTu-80 cells [3] = experiment: Mitochondrial membrane potential, JC-10 flow cytometry; format: cell-based, human; conditions: for % cells with J-aggregate (red, high membrane potential) / % cells with J-monomer (green, decreased membrane potential): JC-10; for effect on mitochondrial membrane potential: more pronounced with increase of concentration up to IC50
# From the text: Apoptosis induction by 3a, b, k, j and 4c through the mitochondrial pathway and HuTu-80 cell line was studied by flow cytometry using the fluorescent dye JC-10 from the Mitochondria Membrane Potential Kit. JC-10 accumulated in the mitochondrial matrix and formed aggregates (J-aggregate) with red fluorescence in normal cells with a high mitochondrial membrane potential. The membrane potential decreased in apoptotic cells. JC-10 started to diffuse out from the mitochondria and converts to the monomeric form (J-monomer) and emits green fluorescence. This is recorded with a flow cytometer. […] The process became more pronounced with an increase of 3a, b, 3k, j and 4c concentrations up to IC50 (Figure 5 and Figure 6).
# Cells were harvested at 2000 rpm for 5 min and then washed twice with ice-cold PBS, followed by resuspension in JC-10 (10 µg/mL) and incubation at 37 °C for 10 min. After the cells were rinsed three times and suspended in PBS, the JC-10 fluorescence was observed by flow cytometry (Guava easy Cyte, MERCK, NJ, USA).
# [4] = tested on: MCF-7 (human breast adenocarcinoma); experiment: MTT cytotoxicity, MCF-7; format: cell-based; conditions: for IC50: Homo sapiens, MCF7, MTT, mean ± SD, triplicate; for SI MCF-7: IC50 normal cells (WI38) / IC50 cancer cells, ns = no selectivity
# [5] = tested on: A549 (human lung carcinoma); experiment: MTT cytotoxicity, A549; format: cell-based; conditions: for IC50: Homo sapiens, A549, MTT, mean ± SD, triplicate; for SI A549: IC50 normal cells (WI38) / IC50 cancer cells, ns = no selectivity
# human cancer cell lines = experiment: MTT cytotoxicity, summary statements over several cell lines; format: cell-based
# [6] = tested on: PC3 (human prostate adenocarcinoma); experiment: MTT cytotoxicity, PC3; conditions: for IC50: Homo sapiens, read-out: IC50 PC3, MTT, mean ± SD, triplicate; for SI PC3: IC50 normal cells (WI38) / IC50 cancer cells, ns = no selectivity
# [7] = tested on: M-HeLa (human cervix epitheloid carcinoma); experiment: MTT cytotoxicity, M-HeLa; format: cell-based; conditions: for IC50: Homo sapiens, M-HeLa, MTT, mean ± SD, triplicate; for SI M-HeLa: IC50 normal cells (WI38) / IC50 cancer cells, ns = no selectivity
# [8] = tested on: WI38 (diploid human embryo lung); experiment: MTT cytotoxicity, normal cells WI38; format: cell-based; conditions: Homo sapiens, WI-38, MTT; mean ± SD, triplicate; read-out: WI38 IC50 (normal cell line)
# HuTu-80 cells [9] = experiment: Intracellular ROS production, CellROX Deep Red flow cytometry; format: cell-based, human; conditions: for CellROX Deep Red fluorescence intensity (ROS production): control 600; for ROS generation: compared to 3a and 3b and control (untreated cells)
# From the text: Increasing the production of reactive oxygen species (ROS) by compounds characterizes the mitochondrial apoptotic pathway. Mitochondria are a potential source and target of ROS. ROS lead to disruption of mitochondrial functions and, as a consequence, to irreversible cell damage. In this regard, the effect of test compounds in HuTu-80 cells on ROS production, using flow cytometry analysis and CellROX® Deep Red flow cytometry kit was investigated. Data presented in Figure 7 show a significant increase in CellROX® Deep Red fluorescence intensity. This indicates an increase in ROS production in the presence of the tested compounds.
# ROS generation was investigated using flow cytometry assay and CellROX® Deep Red flow cytometry kit. For this HuTu 80 cells were harvested at 2000 rpm for 5 min and then washed twice with ice-cold PBS, followed by resuspension in 0.1 mL of medium without FBS, to which was added 0.2 μL of Cell ROX® Deep Red and incubated at 37 °C for 30 min After three times washing the cells and suspending them in PBS, the production of ROS in the cells was immediately monitored using flow cytometer Guava easy Cyte, MERCK, NJ, USA).
# [10] = tested on: HuTu 80 (human duodenal adenocarcinoma); experiment: MTT cytotoxicity, HuTu 80; format: cell-based; conditions: for IC50: Homo sapiens, HuTu80, MTT, mean ± SD, triplicate; for SI HuTu 80: IC50 normal cells (WI38) / IC50 cancer cells, ns = no selectivity
Compound,apoptosis induction (HuTu-80 cells [1]),IC50 [2] [µM],SI T98G [2],"% cells with J-aggregate (red, high membrane potential) (HuTu-80 cells [3]; IC50, 48 h) [%]","% cells with J-monomer (green, decreased membrane potential) (HuTu-80 cells [3]; IC50, 48 h) [%]","% cells with J-aggregate (red, high membrane potential) (HuTu-80 cells [3]; IC50/2, 48 h) [%]","% cells with J-monomer (green, decreased membrane potential) (HuTu-80 cells [3]; IC50/2, 48 h) [%]",effect on mitochondrial membrane potential (HuTu-80 cells [3]),IC50 [4] [µM],SI MCF-7 [4],IC50 [5] [µM],SI A549 [5],IC50 [6] [µM],SI PC3 [6],IC50 [7] [µM],SI M-HeLa [7],IC50 [8] [µM],"CellROX Deep Red fluorescence intensity (ROS production) (HuTu-80 cells [9]; IC50, 48 h)",IC50 [10] [µM],SI HuTu 80 [10],further results
"CCCCCCCCCCOCC(O)C[P+](c1ccccc1)(c1ccccc1)c1ccccc1 (stereo not shown) [3j, (3-(Decyloxy)-2-hydroxypropyl)triphenylphosphonium trifluoromethanesulfonate]",actively induce apoptosis,1.7 ± 0.1,2,50.1,48.2,89.6,10.4,decrease the mitochondrial membrane potential,2.9 ± 0.2,1.1,3.7 ± 0.3,ns,0.6 ± 0.05,5.2,1.1 ± 0.09,3,3.1 ± 0.2,3700,0.5 ± 0.03,6.2,"IC50 (human cancer cell lines; Homo sapiens, HuTu80, lines other than HuTu 80 and PC3, read-out: IC50 concentration values against other human cancer lines): 1.1 to 3.7 µM; cytotoxic effect against the PC3 line relative to doxorubicin ([6]; words): two times higher than doxorubicin; CellROX Deep Red fluorescence intensity (ROS production) (HuTu-80 cells [9]; IC50/2, 48 h): 2500; ROS generation (HuTu-80 cells [9]): most active to generate ROS; anti-cancer activity against the HuTu 80 cell line relative to doxorubicin ([10]; words): comparable to doxorubicin activity"
"CCCCCCCCCCCCCCCC(=O)OCC(O)C[P+](c1ccccc1)(c1ccccc1)c1ccccc1 (stereo not shown) [3k, (2-Hydroxy-3-palmitoyloxy-propyl)triphenylphosphonium trifluoromethanesulfonate]",actively induce apoptosis,55.8 ± 4.7,ns,26.2,73.8,35,65,decrease the mitochondrial membrane potential,30.5 ± 2.5,ns,54.7 ± 4.4,ns,25 ± 2,ns,40.3 ± 3.5,ns,16.2 ± 1.3,3800,3.5 ± 0.3,5,"CellROX Deep Red fluorescence intensity (ROS production) (HuTu-80 cells [9]; IC50/2, 48 h): 2000; ROS generation (HuTu-80 cells [9]): most active to generate ROS"
"COc1cccc2c1C(=O)c1c(O)c3c(c(O)c1C2=O)C[C@@](O)(C(=O)CO)C[C@@H]3O[C@H]1C[C@H](N)[C@H](O)[C@H](C)O1 [Dox, doxorubicin, reference compound]",,2 ± 0.1,ns,,,,,,0.4 ± 0.03,2,0.7 ± 0.5,1.1,1.4 ± 0.1,ns,2.1 ± 0.1,ns,0.8 ± 0.07,,0.2 ± 0.01,4,selectivity relative to the leading compounds (human cancer cell lines): significantly inferior to the leading compounds in selectivity
